Data taken from US4192871A, “Chemical compounds” (Glaxo Laboratories Limited, priority 1976, dated 1980).
Where a name gives a salt, the structure may show the parent alone.

Columns and labels:
[1] = dissolution of the 11β-aminoester salts in aqueous acid (Table 5 and Examples 101, 225-229); type: physicochemical; settings: for concentration of aqueous solution of the citrate: citric acid monohydrate in water, filtered solution
Outline: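 11β-Aminoester free base combined with 1 molar part of acid (citric acid as monohydrate) in water, with extra acid or prior ethanol co-evaporation in some methods. Solution made up to set weight, undissolved base collected and weighed to calculate dissolved amount. Solution pH measured.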

pH of the salt solutions = type: physicochemical
Outline: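 Aminoester free base mixed with 1 molar part acid in water, stirred or shaken, with extra acid or ethanol evaporation in some methods, then made up with water to set weight. Undissolved base collected and weighed to calculate dissolved base; solution membrane-filtered and pH measured.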

[2] = aqueous solution of the salt, Table 5
[3] = solution of the salt in saline, before any adjustment
[4] = method D: 1 molar part acid, undissolved material weighed, WT. of solution 10 g, except Ex. 136: 8.95, 140: 9.52, 165 and 167: 10.1, 190 and 198: 9.8, 191: 8.9, 194: 6.6, 204: 10.09, 219: 10.6 g
[5] = method A: clear solution, 1 molar part acid, made up with water to WT. of solution 10 g, except Ex. 121 and 150: 12, 123: 12.3, 124: 7.5, 129: 10.3, 135 and 139: 8.95, 164: 10.35, 170: 10.4, 181: 10.04, 187: 9.5, 210: 10.2, 221: 15 g
[6] = aqueous solution of the citrate, filtered, 9.5-10 mg/ml
[7] = method B: further acid added, undissolved material weighed, WT. of solution 10 g, except Ex. 130 and 141: 9.2, 142: 9.23, 143, 144, 189 and 199: 9.8, 149: 10.6, 153: 7.9, 162 and 188: 9.5, 163: 68, 166: 10.4, 168: 10.7, 169: 10.9, 183: 8.05, 184 and 201: 9.83, 185: 7.1, 186: 9.3, 192: 10.07, 193: 6.4, 195: 6.8, 196: 7, 197: 7.2, 200: 10.1, 206: 15 g
[8] = method C: ethanol evaporated, residue in water, undissolved material weighed, WT. of solution Ex. 118: 10, 120: 10.4, 148: 9.54, 152: 5.6, 154: 9.1, 155: 8.77, 156: 9.06, 157: 9.5, 158: 9.38, 159: 9.17, 179: 9.65, 180: 11.7, 182: 4.9, 202: 12.05, 213: 12, 214: 11.5, 215: 11.1, 216: 11.6, 217: 12.1 g
[9] = aqueous solution, pH adjusted with sodium hydroxide solution

CCCCN(CC)CC(=O)O[C@H]1C[C@]2(C)[C@@H](C(C)=O)CC[C@H]2[C@@H]2CC[C@H]3C[C@H](O)CC[C@]3(C)[C@H]21 [Example 220]
Dissolved aminoester ([1]; method E: as C with further acid, WT. of solution Ex. 160: 6.12, 161: 7.8, 203: 12.7, 212: 12.125, 220: 10 g): 100 mg | pH (pH of the salt solutions; [2]): 3.6

CCCCN(CC)CC(=O)O[C@H]1C[C@]2(C)[C@@H](C(C)=O)CC[C@H]2[C@@H]2CC[C@H]3C[C@H](O)CC[C@]3(C)[C@H]21.O=C(O)CC(O)(CC(=O)O)C(=O)O [Example 222, 11β-(N-Butyl-N-ethylaminoacetoxy)-3α-hydroxy-5α-pregnan-20-one, citrate salt]
Dissolved aminoester ([1]; method A, 0.9% w/v saline in place of water, WT. of solution Ex. 122: 37.5 g, 222: 50 g): 500 mg | pH (pH of the salt solutions; solution in 0.9% w/v saline, pH adjusted with sodium hydroxide solution, citrate salt): 3.97 | pH (pH of the salt solutions; solution in 0.9% w/v saline, pH adjusted with sodium hydroxide solution, listed as Example 224, citrate salt): 4.00 | pH (pH of the salt solutions; [3]): 3.62

CCN(CC)CC(=O)O[C@H]1C[C@]2(C)[C@@H](C(C)=O)CC[C@H]2[C@@H]2CC[C@H]3C[C@H](O)C=C[C@]3(C)[C@H]21 [Example 211]
Dissolved aminoester [1, 4]: 94 mg | pH (pH of the salt solutions; [2]): 3.2

CCC(C)CNCC(=O)O[C@H]1C[C@]2(C)[C@@H](C(C)=O)CC[C@H]2[C@@H]2CC[C@H]3C[C@H](O)CC[C@]3(C)[C@H]21 (stereo partly drawn) [Example 129]
Dissolved aminoester [1, 5]: 92.3 mg | pH (pH of the salt solutions; [2]): 3.64

CCCN(CCC)CC(=O)O[C@H]1C[C@]2(C)[C@@H](C(=O)COC(C)=O)CC[C@H]2[C@@H]2CC[C@H]3C[C@H](O)CC[C@]3(C)[C@H]21 [Example 209]
Dissolved aminoester [1, 4]: 75 mg | pH (pH of the salt solutions; [2]): 3.2

CC(=O)[C@H]1CC[C@H]2[C@@H]3CC[C@H]4C[C@H](O)CC[C@@H]4[C@H]3[C@@H](OC(=O)CN3CCC(C)CC3)C[C@]12C [Example 229 citrate salt]
concentration of aqueous solution of the citrate [1]: 10000 µg/mL | pH (pH of the salt solutions; [6]): 3.73

CC(=O)[C@H]1CC[C@H]2[C@@H]3CC[C@H]4C[C@H](O)CC[C@]4(C)[C@H]3[C@@H](OC(=O)CN(C)C(C)(C)C)C[C@]12C [Example 201]
Dissolved aminoester [1, 7]: 98.3 mg | pH (pH of the salt solutions; [2]): 3.12

CC(=O)[C@H]1CC[C@H]2[C@@H]3CC[C@H]4C[C@H](O)CC[C@]4(C)[C@H]3[C@@H](OC(=O)CNC(C)CC(C)C)C[C@]12C (stereo partly drawn) [Example 140]
Dissolved aminoester [1, 4]: 80.7 mg | pH (pH of the salt solutions; [2]): 3.59

CC(=O)[C@H]1CC[C@H]2[C@@H]3CC[C@H]4C[C@](C)(O)CC[C@]4(C)[C@H]3[C@@H](OC(=O)CN3CCC(C)CC3)C[C@]12C [Example 134]
Dissolved aminoester [1, 4]: 84 mg | pH (pH of the salt solutions; [2]): 3.2

CCO[C@H]1C[C@@]2(C)[C@@H](CC[C@@H]3[C@@H]2[C@@H](OC(=O)CN(CC)CC)C[C@]2(C)[C@@H](C(C)=O)CCC[C@@H]32)C[C@@H]1O [Example 225 citrate salt]
concentration of aqueous solution of the citrate [1]: 9750 µg/mL | pH (pH of the salt solutions; [6]): 3.66

CCCN(CCC)CC(=O)O[C@H]1C[C@]2(C)[C@@H](C(C)=O)CC[C@H]2[C@@H]2CC[C@H]3C[C@H](O)CC[C@]3(C)[C@H]21 [Example 215]
Dissolved aminoester [1, 8]: 111 mg | pH (pH of the salt solutions; [2]): 3.63

CC(=O)[C@H]1CC[C@H]2[C@@H]3CC[C@H]4C[C@H](O)CC[C@]4(C)[C@H]3[C@@H](OC(=O)CN3CCCCC3)C[C@]12C [Example 156]
Dissolved aminoester [1, 8]: 90.3 mg | pH (pH of the salt solutions; [2]): 3.52

CCCN(CCC)CC(=O)O[C@H]1C[C@]2(C)[C@@H](C(C)=O)CC[C@H]2[C@@H]2CC[C@H]3C[C@H](O)CC[C@]3(C)[C@H]21 [Example 214]
Dissolved aminoester [1, 8]: 115 mg | pH (pH of the salt solutions; [2]): 3.52

CCC(C)NCC(=O)O[C@H]1C[C@]2(C)[C@@H](C(C)=O)CC[C@H]2[C@@H]2CC[C@H]3C[C@H](O)CC[C@]3(C)[C@H]21 (stereo partly drawn) [Example 139]
Dissolved aminoester [1, 5]: 89.5 mg | pH (pH of the salt solutions; [2]): 3.76

CCOC1CC2(C)C(CCC3C4CCC(C(C)=O)C4(C)CC(OC(=O)CN4CCC(C)CC4)C32)CC1O (stereo not drawn) [Example 164]
Dissolved aminoester [1, 5]: 103.5 mg | pH (pH of the salt solutions; [2]): 3.72

CC(=O)[C@H]1CC[C@H]2[C@@H]3CC[C@H]4C[C@H](O)CC[C@]4(C)[C@H]3[C@@H](OC(=O)CN(C)[C@H](C)CC(C)C)C[C@]12C [Example 198]
Dissolved aminoester [1, 4]: 90 mg | pH (pH of the salt solutions; [2]): 3.62

CC(=O)[C@H]1CC[C@H]2[C@@H]3CC[C@H]4C[C@H](O)CC[C@]4(C)[C@H]3[C@@H](OC(=O)C(C)N3CCCCC3)C[C@]12C (stereo partly drawn) [Example 180]
Dissolved aminoester [1, 8]: 117 mg | pH (pH of the salt solutions; [2]): 3.60

CCOC1CC2(C)C(CCC3C4CCC(C(C)=O)C4(C)CC(OC(=O)CNCCC(C)C)C32)CC1O (stereo not drawn) [Example 165]
Dissolved aminoester [1, 4]: 76.5 mg | pH (pH of the salt solutions; [2]): 3.68

C=CCN(C)CC(=O)O[C@H]1C[C@]2(C)[C@@H](C(C)=O)CC[C@H]2[C@@H]2CC[C@H]3C[C@H](O)CC[C@]3(C)[C@H]21 [Example 191]
Dissolved aminoester [1, 4]: 86.1 mg | pH (pH of the salt solutions; [2]): 3.20

CCN(CC)CC(=O)OC1CC2(C)C(C(=O)COC)CCC2C2CCC3CC(O)CCC3(C)C12 (stereo not drawn) [Example 172]
Dissolved aminoester [1, 5]: 100 mg | pH (pH of the salt solutions; [2]): 3.2

CC(=O)C1C(C)CC2C3CCC4CC(O)CCC4(C)C3C(OC(=O)CN3CCC(C)CC3)CC21C (stereo not drawn) [Example 178]
Dissolved aminoester [1, 5]: 100 mg | pH (pH of the salt solutions; [2]): 3.6

CCCN(CCC)CC(=O)O[C@H]1C[C@]2(C)[C@@H](C(C)=O)CC[C@H]2[C@@H]2CC[C@H]3C[C@H](O)CC[C@]3(C)[C@H]21 [Example 218]
Dissolved aminoester ([1]; method C, 0.9% w/v saline in place of water, WT. of solution 95 g): 951 mg | pH (pH of the salt solutions; [3]): 3.38

CCN(CC(=O)O[C@H]1C[C@]2(C)[C@@H](C(C)=O)CC[C@H]2[C@@H]2CC[C@H]3C[C@H](O)CC[C@]3(C)[C@H]21)C(C)CC(C)C (stereo partly drawn) [Example 197]
Dissolved aminoester [1, 7]: 63 mg | pH (pH of the salt solutions; [2]): 2.99

CCCN(CCC)CC(=O)O[C@H]1C[C@]2(C)[C@@H](C(C)=O)CC[C@H]2[C@@H]2CC[C@H]3C[C@H](O)CC[C@]3(C)[C@H]21 [Example 217]
Dissolved aminoester [1, 8]: 76 mg | pH (pH of the salt solutions; [2]): 3.53

CCN(CC)CC(=O)O[C@H]1C[C@]2(C)[C@@H](C(C)=O)CC[C@H]2[C@@H]2CC[C@H]3C[C@](C)(O)CC[C@]3(C)[C@H]21 [Example 131]
Dissolved aminoester [1, 5]: 100 mg | pH (pH of the salt solutions; [2]): 3.55

CCCCN(C)CC(=O)OC1CC2(C)C(CC(C)C2C(C)=O)C2CCC3CC(O)CCC3(C)C12 (stereo not drawn) [Example 177]
Dissolved aminoester [1, 5]: 100 mg | pH (pH of the salt solutions; [9]): 4.0

CCN(CC)CC(=O)O[C@H]1C[C@]2(C)[C@@H](C(C)=O)CC[C@H]2[C@@H]2CC[C@H]3C[C@H](O)[C@@H](Cl)C[C@]3(C)[C@H]21 [Example 202]
Dissolved aminoester [1, 8]: 120.5 mg | pH (pH of the salt solutions; [2]): 3.65

CCN(CC)CC(=O)O[C@H]1C[C@]2(C)[C@@H](C(C)=O)CC[C@H]2[C@@H]2C[C@@H](C)[C@H]3C[C@H](O)CC[C@]3(C)[C@H]21 [Example 171]
Dissolved aminoester [1, 5]: 100 mg | pH (pH of the salt solutions; [2]): 3.4

CCCCOC1CC2(C)C(CCC3C4CCC(C(C)=O)C4(C)CC(OC(=O)CN(C)CCCC)C32)CC1O (stereo not drawn) [Example 168]
Dissolved aminoester [1, 7]: 70.5 mg | pH (pH of the salt solutions; [2]): 2.4

CCO[C@H]1C[C@@]2(C)[C@@H](CC[C@@H]3[C@@H]2[C@@H](OC(=O)CN(CC)CC)C[C@]2(C)[C@@H](C(C)=O)CC[C@@H]32)C[C@@H]1O.O=C(O)CC(O)(CC(=O)O)C(=O)O [Example 101 citrate salt, 11β-N,N-Diethylaminoacetoxy-2β-ethoxy-3α-hydroxy-5α-pregnan-20-one, citrate salt]
dissolution in saline ([1]; citrate salt froth, in saline): dissolved readily in saline | pH (pH of the salt solutions; solution in 0.9% w/v saline, pH adjusted with sodium hydroxide solution): 4.52 | pH (pH of the salt solutions; solution of the salt in saline, before any adjustment, citrate salt): 3.5 | pH (pH of the salt solutions; solution of the salt in saline, before any adjustment, listed as Example 223, citrate salt): 3.63

CC(=O)[C@H]1CC[C@H]2[C@@H]3CC[C@H]4C[C@H](O)CC[C@]4(C)[C@H]3[C@@H](OC(=O)CN(C)C3CC3)C[C@]12C [Example 193]
Dissolved aminoester [1, 7]: 23 mg | pH (pH of the salt solutions; [2]): 2.46

CC(=O)[C@H]1CC[C@H]2[C@@H]3CC[C@H]4C[C@H](O)CC[C@]4(C)[C@H]3[C@@H](OC(=O)C(C)N3CCC(C)CC3)C[C@]12C (stereo partly drawn) [Example 179]
Dissolved aminoester [1, 8]: 96.5 mg | pH (pH of the salt solutions; [9]): 3.66

CCCN(C)CC(=O)O[C@H]1C[C@]2(C)[C@@H](C(C)=O)CC[C@H]2[C@@H]2CC[C@H]3C[C@H](O)CC[C@]3(C)[C@H]21 [Example 117]
Dissolved aminoester [1, 5]: 100 mg | pH (pH of the salt solutions; [2]): 3.4

CC(=O)[C@H]1CC[C@H]2[C@@H]3CC[C@H]4C[C@H](O)CC[C@]4(C)[C@H]3[C@@H](OC(=O)CN3CCCCCCC3)C[C@]12C [Example 128]
Dissolved aminoester [1, 7]: 68 mg | pH (pH of the salt solutions; [2]): 2.65
